Assay [1] has as its target Adrenergic receptor alpha-2 (Homo sapiens) (UniProt P08913+P18825+P18089). The assay can be described thus: alpha2 (non-selective) Ligand binding assay. The conditions noted are these: Compound concentration 10.0 uM. In kind it is protein assay.
Assay [2] concerns the target T1, 5-hydroxytryptamine receptor 3A (Homo sapiens) (UniProt P46098).
T1 sequence (whole entry): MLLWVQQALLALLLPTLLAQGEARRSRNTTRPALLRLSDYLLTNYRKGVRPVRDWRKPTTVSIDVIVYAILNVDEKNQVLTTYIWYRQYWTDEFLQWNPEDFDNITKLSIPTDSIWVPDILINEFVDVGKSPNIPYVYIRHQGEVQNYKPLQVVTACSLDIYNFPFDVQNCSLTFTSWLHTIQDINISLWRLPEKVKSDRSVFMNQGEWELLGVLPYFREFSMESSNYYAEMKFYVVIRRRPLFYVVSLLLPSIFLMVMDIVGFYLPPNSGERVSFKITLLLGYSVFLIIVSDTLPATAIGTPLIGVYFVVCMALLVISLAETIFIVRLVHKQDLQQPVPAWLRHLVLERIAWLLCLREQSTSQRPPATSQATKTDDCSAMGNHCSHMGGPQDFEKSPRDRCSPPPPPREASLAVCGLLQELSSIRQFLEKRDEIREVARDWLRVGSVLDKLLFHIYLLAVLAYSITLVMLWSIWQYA
Kind of assay: 5-HT3 (h) Ligand binding assay. As to conditions: Compound concentration 10.0 uM; call rule not given here.

The target in assay [3] is Calcitonin-gene-related peptide receptor, CALCRL/RAMP1 (Homo sapiens) (UniProt O60894+Q16602). The assay can be described thus: CGRP (h) Ligand binding assay. The format is protein-complex assay. The conditions noted are these: Compound concentration 10.0 uM.
Assay [4] has as its target GABA-A receptor; anion channel (Homo sapiens) (UniProt P14867+P47870+P18507+P28472+P48169+Q99928+Q9UN88+P34903+O00591+O14764+Q8N1C3+P18505+P78334+P47869+P31644+Q16445). The assay can be described thus: BZD (central) Ligand binding assay. The format is protein-complex assay. As to conditions: Compound concentration 10.0 uM.
The target in assay [5] is Adenosine receptor A2a (Homo sapiens) (UniProt P29274). The assay can be described thus: A2a (h) Ligand binding assay. The conditions noted are these: Compound concentration 10.0 uM.
Chain of Adenosine receptor A2a (Homo sapiens) (P29274 whole entry): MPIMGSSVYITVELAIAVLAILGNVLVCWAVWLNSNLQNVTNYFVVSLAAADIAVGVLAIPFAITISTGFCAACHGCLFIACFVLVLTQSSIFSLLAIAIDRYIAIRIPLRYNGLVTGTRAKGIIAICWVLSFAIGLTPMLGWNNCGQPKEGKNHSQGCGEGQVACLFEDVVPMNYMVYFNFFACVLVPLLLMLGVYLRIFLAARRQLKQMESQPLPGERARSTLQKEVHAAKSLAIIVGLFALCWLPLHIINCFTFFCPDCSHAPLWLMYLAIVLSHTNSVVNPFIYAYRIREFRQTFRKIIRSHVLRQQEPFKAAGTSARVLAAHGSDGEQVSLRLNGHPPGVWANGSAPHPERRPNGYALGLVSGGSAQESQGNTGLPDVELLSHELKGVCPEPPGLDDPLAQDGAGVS
In assay [6] the target is D(1B) dopamine receptor (Homo sapiens) (UniProt P21918). As to conditions: Compound concentration 10.0 uM.
Chain of D(1B) dopamine receptor (Homo sapiens) (P21918 whole entry): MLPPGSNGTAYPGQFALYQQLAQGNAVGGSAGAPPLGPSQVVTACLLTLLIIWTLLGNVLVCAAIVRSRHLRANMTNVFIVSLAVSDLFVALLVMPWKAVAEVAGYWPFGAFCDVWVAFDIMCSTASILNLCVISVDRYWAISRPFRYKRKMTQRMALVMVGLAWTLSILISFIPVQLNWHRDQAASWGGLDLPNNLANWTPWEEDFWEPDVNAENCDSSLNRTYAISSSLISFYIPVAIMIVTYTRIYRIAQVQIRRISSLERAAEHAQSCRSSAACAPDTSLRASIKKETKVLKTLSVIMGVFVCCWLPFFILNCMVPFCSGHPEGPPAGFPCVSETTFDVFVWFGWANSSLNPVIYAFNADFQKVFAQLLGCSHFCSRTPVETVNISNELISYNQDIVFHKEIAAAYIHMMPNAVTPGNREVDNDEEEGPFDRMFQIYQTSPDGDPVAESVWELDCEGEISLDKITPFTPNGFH
Assay [7] deals with Pituitary adenylate cyclase-activating polypeptide type I receptor (Homo sapiens) (UniProt P41586). The assay can be described thus: PACAP[…] (h) Ligand binding assay. The conditions noted are these: Compound concentration 10.0 uM.
Chain of Pituitary adenylate cyclase-activating polypeptide type I receptor (Homo sapiens) (P41586 21-468 limits assumed): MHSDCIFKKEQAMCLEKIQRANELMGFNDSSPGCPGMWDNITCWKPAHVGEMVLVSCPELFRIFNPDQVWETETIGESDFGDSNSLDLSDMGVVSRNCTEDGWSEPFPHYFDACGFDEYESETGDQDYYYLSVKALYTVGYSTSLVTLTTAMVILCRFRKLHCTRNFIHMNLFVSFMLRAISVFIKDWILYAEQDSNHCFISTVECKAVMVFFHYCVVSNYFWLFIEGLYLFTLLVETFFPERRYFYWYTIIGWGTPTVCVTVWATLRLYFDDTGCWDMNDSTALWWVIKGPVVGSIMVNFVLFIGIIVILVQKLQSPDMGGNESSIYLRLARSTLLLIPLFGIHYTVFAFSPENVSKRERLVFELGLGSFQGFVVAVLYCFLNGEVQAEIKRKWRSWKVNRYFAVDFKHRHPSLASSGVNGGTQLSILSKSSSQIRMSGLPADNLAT
In assay [8] the target is D(1B) dopamine receptor (Homo sapiens) (UniProt P21918). The assay can be described thus: D5 (h) Ligand binding assay. The conditions noted are these: Compound concentration 10.0 uM.
In assay [9] the target is Somatostatin receptor (Homo sapiens) (UniProt P35346+P30874+P31391+P30872+P32745). The assay can be described thus: Somatostatin Ligand binding assay. In kind it is protein assay. The conditions noted are these: Compound concentration 10.0 uM.
Assay [10] deals with Vasoactive intestinal polypeptide receptor 1 (Homo sapiens) (UniProt P32241). The assay can be described thus: VIP1 (h) Ligand binding assay.
Chain of Vasoactive intestinal polypeptide receptor 1 (Homo sapiens) (P32241 whole entry): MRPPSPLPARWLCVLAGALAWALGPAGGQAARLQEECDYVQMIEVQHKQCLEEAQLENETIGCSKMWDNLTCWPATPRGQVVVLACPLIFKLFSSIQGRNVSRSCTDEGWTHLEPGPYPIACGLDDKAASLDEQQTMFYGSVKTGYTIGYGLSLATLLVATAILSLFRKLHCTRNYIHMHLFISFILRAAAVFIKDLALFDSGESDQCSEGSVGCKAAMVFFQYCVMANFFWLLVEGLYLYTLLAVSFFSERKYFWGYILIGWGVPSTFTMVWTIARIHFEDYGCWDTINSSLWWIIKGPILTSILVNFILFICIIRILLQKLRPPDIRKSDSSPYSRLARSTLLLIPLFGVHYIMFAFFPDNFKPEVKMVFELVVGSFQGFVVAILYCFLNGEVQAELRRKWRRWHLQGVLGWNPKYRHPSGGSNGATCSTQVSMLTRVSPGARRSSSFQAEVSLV
Assay [11] has as its target Protein farnesyltransferase (Bos taurus, UniProt P29702+P49355). The assay can be described thus: Scintillation proximity assay (SPA). The format is protein-complex assay. For orientation: Scintillation proximity formats need no separation of bound from free tracer.

Regarding `Cn1cncc1[C@](O)(COc1ccc(C#N)cc1-c1ccc(OC(F)(F)F)cc1)c1ccc(C#N)cc1` [ABT-100], the inhibition in [1] is less than 10%; in assay [2], 12%; in assay [3], less than 10%; in assay [4], less than 10%; in assay [5] it was less than 10%; in assay [6] it was 4.79%. For the same compound, the inhibition was less than 10% in assay [7]; 54% in assay [8]; 13% in assay [9]; 23% in assay [10] (Compound concentration 0.3 uM); 60% in [10] (Compound concentration 10.0 uM).
For `Cn1cncc1[C@@](O)(COc1ccc(C#N)cc1-c1ccc(OC(F)(F)F)cc1)c1ccc(C#N)cc1` [A-108], the IC50 in assay [11] is reported as > 100 nM (not active).

One may read the inhibition as the drop in the measured response relative to a control, in per cent. The IC50 is the concentration at which inhibition is half-maximal. A lower IC50 goes with greater potency in that assay.

These data come from ChEMBL document CHEMBL4507257, “Data for DCP probe ABT-100” (2021).
